Key:
[1] = tested on: barley seedlings (first leaf); assay: Maximal daily leaf elongation rate (LERmax) of the first leaf of barley seedlings, with GA3; format: in vivo
Source text: The methods have been previously described (Chandler and Robertson, 1999). Curves were fitted to data points using a 4-parameter Hill equation.
The maximal daily rate of elongation (LERmax) achieved by the first leaf under standard conditions was a robust measure of GA responsiveness (Chandler and Robertson, 1999) and was therefore determined for all of the barley overgrowth lines and their parents (Table 5). […] Three overgrowth alleles (sln1m, sln1n and sln1s) were compared in both their original dwarfing genetic background as well as after back-crossing to the tall WT background. […] In a wild-type background, the overgrowth alleles tended to enhance growth rates.

[2] = tested on: barley endosperm half-grains; assay: α-Amylase production by endosperm half-grains incubated with GA3 (Ceralpha procedure); conditions: for α-Amylase at 42 h / α-Amylase at 72 h: GA3 (1 μM), 22° C.
Experimental: Endosperm half-grains were prepared and incubated with or without GA3 (1 μM) at 22° C. for 0, 42 or 72 h. To each sample, 1.5 mL of a solution of 10 mm CaCl2 was added, the half-grains were homogenised, and an aliquot of 1 mL was clarified by centrifugation (20,000 g for 5 min). The supernatant was analyzed for α-amylase activity using the Megazyme alpha-amylase (Ceralpha) procedure.
The production of α-amylase by endosperm half-grains of wild-type barley is dependent on the presence of an active GA. Therefore, monitoring α-amylase activity in the absence of an active GA provided a convenient measure of the extent of ‘basal’ GA signaling in the mutants. […] Among the overgrowth derivatives of Sln1d, the Sln1d.9 derivative was exceptional, accumulating very high levels of α-amylase at both 42 h and 72 h incubation, despite this line showing only a modest restoration of growth rate (Table 5).

C=C1C[C@]23C[C@@]1(O)CC[C@H]2[C@@]12C=C[C@H](O)[C@@](C)(C(=O)O1)[C@H]2[C@@H]3C(=O)O [GA3]
LERmax ([1]; line Him (Himalaya), genotype WT): 52.3 ± 0.1 mm · d^−1
LERmax ([1]; line M463, genotype grd2b): 49.8 ± 0.8 mm · d^−1
LERmax ([1]; line M640, genotype Sln1d): 12.1 ± 0.3 mm · d^−1
LERmax ([1]; line M693, genotype gse1n): 35.3 ± 1.2 mm · d^−1
increase in α-amylase activity over basal levels ([2]; 72 h incubation with GA3, control lines WT, grd2b): ~15 fold
α-Amylase at 42 h ([2]; line Him, genotype WT): 9.81 ± 0.86 Ceralpha units/grain
α-Amylase at 42 h ([2]; line M463, genotype grd2b): 7.20 ± 0.73 Ceralpha units/grain
α-Amylase at 72 h ([2]; line Him, genotype WT): 23.1 ± 2.8 Ceralpha units/grain
α-Amylase at 72 h ([2]; line M463, genotype grd2b): 18.9 ± 1.4 Ceralpha units/grain
